# Values quoted from earlier work in patent US7375230B2, “Fermentation and purification of migrastatin and analog” (Kosan Biosciences, Inc., priority 2000, dated 2008).
# Legend:
# [1] = tested on: human esophageal cancer EC17 cells; conditions: compared with clarithromycin and erythromycin
# mouse melanoma B16 cells = conditions: compared with clarithromycin and erythromycin
smiles,measurement,setting,value
"CO[C@H]1/C=C/CC/C=C/C(=O)O[C@H]([C@H](C)C(=O)CCCC2CC(=O)NC(=O)C2)/C(C)=C\[C@@H](C)[C@@H]1O [Migrastatin, migrastatin]",effectiveness against the migration of cells,[1],more effective than clarithromycin and erythromycin
same,effectiveness against the migration of cells,mouse melanoma B16 cells,more effective than clarithromycin and erythromycin
